The values below are quoted from earlier work in patent publication US9937184B2 (THEOCORP HOLDING COMPANY, LLC, priority 2013, dated 2018).

The conditions of data set [1]: in vivo.
Data set [2] deals with UMR 106-01 rat obsteoblast-like cells. The following applies: prior art results (Kamagata-Kiyoura 1999).

In the case of `Cn1cnc2c1c(=O)[nH]c(=O)n2C` [Theobromine, 3,7-dimethyl-2,3,6,7-tetrahydro-1H-purine-2,6-dione], in data set [1], the “plasma half-life (t1/2) in the bloodstream” value is reported as “six”.
Take `Cn1c(=O)c2c(ncn2C)n(C)c1=O` [caffeine, 1,3,7-trimethylxanthine]: the “proliferation of osteoblast-like cells (UMR 106-01)” value in data set [2] is “inhibits cell proliferation”.
